Measured values as given in the supplement of paper PMC10307832.

Key:
Assay in all cases: relative viability (nuclei count vs DMSO), 5 days (fraction); higher = more cells survive
[1] = compound: COc1cc([C@@H]2c3cc4c(cc3[C@@H](O[C@@H]3O[C@@H]5CO[C@@H](C)O[C@H]5[C@H](O)[C@H]3O)[C@H]3COC(=O)[C@H]23)OCO4)cc(OC)c1O [Etoposide] + COc1cc2c(Oc3ccc(NC(=O)C4(C(=O)Nc5ccc(F)cc5)CC4)cc3F)ccnc2cc1OCCCN1CCOCC1 [Foretinib] (partner 0.25 µM)
How it was run: (§1)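 Lung cancer cell lines in 1536-well plates were dosed by pin tool the day after seeding, either with one drug alone or with a fixed anchor-drug dose plus five library-drug doses (not always all listed) in √10 steps. After 5 days, cells were fixed and their nuclei stained in one step (final 0.05% Triton X-100, 1% formaldehyde, 1 ug/ml Hoechst), then counted on 4× images. Relative viability is the nuclei count in treated wells divided by that in vehicle wells. Values are medians of duplicate plates.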

[2] = compound: CC1=C(N=C(N=C1N)[C@H](CC(=O)N)NC[C@@H](C(=O)N)N)C(=O)N[C@@H]([C@H](C2=CN=CN2)OC3C(C(C(C(O3)CO)O)O)OC4C(C(C(C(O4)CO)O)OC(=O)N)O)C(=O)N[C@H](C)[C@H]([C@H](C)C(=O)N[C@@H]([C@@H](C)O)C(=O)NCCC5=NC(=CS5)C6=NC(=CS6)C(=O)NCCC[S+](C)C)O [Bleomycin] + Nc1nc2[nH]cc(CCc3ccc(C(=O)N[C@@H](CCC(=O)O)C(=O)O)cc3)c2c(=O)[nH]1 [Pemetrexed] (partner 0.2 µM); details: main component drawn
How it was run: as §1

[3] = compound: COc1cc([C@@H]2c3cc4c(cc3[C@@H](O[C@@H]3O[C@@H]5CO[C@@H](C)O[C@H]5[C@H](O)[C@H]3O)[C@H]3COC(=O)[C@H]23)OCO4)cc(OC)c1O [Etoposide] + Nc1nc2[nH]cc(CCc3ccc(C(=O)N[C@@H](CCC(=O)O)C(=O)O)cc3)c2c(=O)[nH]1 [Pemetrexed] (partner 0.2 µM)
How it was run: as §1

[4] = compound: COc1cc([C@@H]2c3cc4c(cc3[C@@H](O[C@@H]3O[C@@H]5CO[C@@H](C)O[C@H]5[C@H](O)[C@H]3O)[C@H]3COC(=O)[C@H]23)OCO4)cc(OC)c1O [Etoposide] + CC(=O)Nc1cccc(-n2c(=O)n(C3CC3)c(=O)c3c(Nc4ccc(I)cc4F)n(C)c(=O)c(C)c32)c1 [Trametinib] (partner 0.02 µM)
How it was run: as §1

Row | Cell Line | relative viability ([1]; first compound 0.01 µM) | relative viability ([1]; first compound 0.03162 µM) | relative viability ([1]; first compound 0.1 µM) | relative viability ([1]; first compound 0.3162 µM) | relative viability ([1]; first compound 1 µM) | relative viability ([2]; first compound 0.01 µM) | relative viability ([2]; first compound 0.03162 µM) | relative viability ([2]; first compound 0.1 µM) | relative viability ([2]; first compound 0.3162 µM) | relative viability ([2]; first compound 1 µM) | relative viability ([3]; first compound 0.01 µM) | relative viability ([3]; first compound 0.03162 µM) | relative viability ([3]; first compound 0.1 µM) | relative viability ([3]; first compound 0.3162 µM) | relative viability ([3]; first compound 1 µM) | relative viability ([4]; first compound 0.01 µM) | relative viability ([4]; first compound 0.03162 µM) | relative viability ([4]; first compound 0.1 µM) | relative viability ([4]; first compound 0.3162 µM) | relative viability ([4]; first compound 1 µM)
1 | SK-LU-1 | 0.765 | 0.701 | 0.484 | 0.329 | 0.18 | 0.934 | 1.04 | 0.965 | 0.473 | 0.465 | 0.991 | 0.863 | 0.817 | 0.363 | 0.282 | 0.446 | 0.411 | 0.394 | 0.258 | 0.236
2 | NCI-H1650 | 0.981 | 1.09 | 0.9 | 0.431 | 0.281 | 0.358 | 0.214 | 0.189 | 0.15 | 0.128 | 0.354 | 0.376 | 0.388 | 0.239 | 0.223 | 0.459 | 0.541 | 0.458 | 0.257 | 0.143
3 | BEN | 0.564 | 0.884 |  | 0.657 | 0.725 | 0.809 | 0.757 | 0.723 | 0.616 | 0.679 | 0.87 | 1.05 |  | 0.727 | 0.669 | 0.919 | 1.01 |  | 1.05 | 0.852
4 | EMC-BAC-2 | 0.918 | 1.05 | 0.612 | 0.302 | 0.238 | 0.416 | 0.4 | 0.419 | 0.476 | 0.324 | 0.442 | 0.466 | 0.476 | 0.37 | 0.284 | 0.818 | 0.774 | 0.531 | 0.364 | 0.308
5 | LU99A | 0.911 | 0.966 | 0.43 | 0.466 | 0.287 | 0.158 | 0.157 | 0.159 | 0.165 | 0.133 | 0.161 | 0.18 | 0.186 | 0.163 | 0.167 | 0.493 | 0.672 | 0.391 | 0.312 | 0.206
6 | ABC-1 | 1.06 | 0.951 | 0.65 | 0.5 | 0.271 |  |  |  |  |  |  |  |  |  |  |  |  |  |  | 
7 | NCI-H2170 | 0.988 | 1.02 | 0.917 | 0.906 | 0.765 | 0.255 | 0.263 | 0.244 | 0.235 | 0.234 | 0.285 | 0.26 |  | 0.261 | 0.252 | 0.843 | 1.03 |  | 0.877 | 0.723
8 | NCI-H1299 | 1.07 | 1.11 | 1.11 | 0.997 | 0.811 |  |  |  |  |  |  |  |  |  |  |  |  |  |  | 
9 | EBC-1 | 0.119 | 0.107 | 0.12 | 0.102 | 0.107 |  |  |  |  |  |  |  |  |  |  |  |  |  |  | 
10 | NCI-H2405 | 1.01 | 1.08 | 1.05 | 0.899 | 0.43 | 0.955 | 0.974 | 0.919 | 0.595 | 0.408 | 1.07 | 1.14 | 0.846 | 0.935 | 0.365 | 0.64 | 0.728 | 0.505 | 0.544 | 0.4
11 | NCI-H1993 | 0.788 | 0.906 | 0.557 | 0.733 | 0.51 | 0.649 | 0.584 | 0.496 | 0.469 | 0.514 |  | 0.662 | 0.502 | 0.543 | 0.399 |  | 0.619 | 0.441 | 0.481 | 0.444
12 | NCI-H441 | 0.923 | 0.838 | 0.673 | 0.363 | 0.286 | 0.248 | 0.251 | 0.267 | 0.217 | 0.244 | 0.254 | 0.257 | 0.235 | 0.193 | 0.153 | 0.481 | 0.455 | 0.394 | 0.26 | 0.141
13 | PC-14 | 0.953 | 0.922 | 0.995 | 0.934 | 0.832 | 0.113 | 0.118 | 0.103 | 0.0537 | 0.0242 | 0.13 | 0.141 | 0.168 | 0.121 | 0.106 | 0.715 | 0.678 | 0.798 | 0.491 | 0.229
14 | NCI-H1792 |  |  |  |  |  | 0.71 | 0.756 | 0.87 | 0.426 | 0.312 | 0.743 | 0.768 |  | 0.616 | 0.229 | 0.47 | 0.5 |  | 0.371 | 0.335
15 | HCC-44 |  |  |  |  |  | 0.625 | 0.666 | 0.586 | 0.526 | 0.401 | 0.64 | 0.684 | 0.801 | 0.64 | 0.601 | 1.01 | 1.21 | 1.09 | 0.97 | 0.739
16 | A549 | 0.773 | 1.01 | 0.753 | 0.236 | 0.068 |  |  |  |  |  |  |  |  |  |  |  |  |  |  | 
17 | NCI-H1563 | 0.758 | 0.93 | 0.785 | 0.609 | 0.604 | 0.618 | 0.915 | 0.691 | 0.54 | 0.575 | 0.693 | 0.806 | 0.547 | 0.425 | 0.371 |  |  |  |  | 
18 | IA-LM | 1.06 | 1.09 | 0.865 | 0.975 | 0.494 |  |  |  |  |  |  |  |  |  |  |  |  |  |  | 
19 | NCI-H1703 | 0.39 | 0.34 | 0.349 | 0.268 | 0.343 |  |  |  |  |  |  |  |  |  |  |  |  |  |  | 
20 | NCI-H1648 |  |  |  |  |  | 0.669 | 0.614 | 0.508 | 0.483 | 0.469 |  | 0.859 | 0.732 | 0.798 | 0.581 |  | 0.552 | 0.362 | 0.523 | 0.416
